Where “and” joins values, the source holds several entries; their conditions need not be identical. Equal values may be shown once. Read-outs that look alike come from different tables or passages of the source.
What was measured:
MDM2 [1] = molecular target: T1, MDM2 (Homo sapiens, UniProt Q00987); test: MDM2 binding (FP53 displacement) by HPLC fractions of resynthesized hit reactions
Experimental: For hits from the MDM2 screen, reactions were performed in the same way but at a 50 nmol scale, and purified with the same method but a 10–80% gradient of solvent B and over 22 min. Fractions were lyophilized and dissolved in 40 μL of DMSO, 160 μL of water was added, and 5 μL of each fraction was transferred to a 384-well plate (Nunc, 264705), and 15 μL of premixed MDM2/FP53 peptide were added (final concentrations: 1.2 μM MDM2, 50 nM FP53, 5% DMSO).

MDM2 [2] = molecular target: T1, MDM2; test: MDM2 binding screen of Libraries 3 and 4: displacement of fluorescent probe F-M8 at 750 nM macrocycle; details: 750 nM macrocycle; crude reaction; probe F-M8
Procedure, shortened: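 Competition with nutlin-3a was run using the fluorescein conjugate. Library members came from scaffolds reacted 6 h at room temperature with carboxylic acids (20 equiv.), HBTU and DABCO in DMSO. Quenching was overnight in Tris-Cl pH 7.4 buffer with 0.01% Tween20.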

MDM2 [3] = molecular target: T1, MDM2; test: IC50 of purified MDM2-binding macrocycles, fluorescence polarization competition with FP53; details: for IC50: HPLC-purified macrocycle, FP displacement of fluorescent reporter peptide; for displacement of fluorescent peptide probe from MDM2: HPLC-purified macrocycles, FP competition; for anisotropy: replicates 1-3
Experimental: Volumes of 5 μL of purified macrocycles (20 mM in DMSO) were serial diluted two-fold in 100% DMSO in a low dead-volume ECHO source plate. Using acoustic droplet transfer, 150 nL of each dilution was transferred to a 384 well low volume polystyrene plate (Nunc, 264705). […] Fluorescence anisotropy was measured as described above. The percentage of bound inhibitor was calculated using the following equation4 %boundinhibitor=N−X/N−P×100 where N is the average anisotropy of the DMSO controls, X is the anisotropy value obtained for each well, and P is the average anisotropy of the unbound probe. The IC50s were determined by plotting the percent of bound inhibitor against the logarithm of the corresponding macrocycle concentration, and the curves were fitted in GraphPad Prism 6 as described above.

[4] = HPLC Fraction 1 of acylation reaction
[5] = HPLC Fraction 2 of acylation reaction
[6] = HPLC Fraction 3 of acylation reaction
[7] = HPLC Fraction 4 of acylation reaction
[8] = HPLC Fraction 5 of acylation reaction
[9] = HPLC Fraction 6 of acylation reaction
[10] = HPLC Fraction 7 of acylation reaction
[11] = HPLC Fraction 8 of acylation reaction
[12] = HPLC Fraction 9 of acylation reaction
[13] = HPLC Fraction 10 of acylation reaction
[14] = HPLC Fraction 11 of acylation reaction
[15] = HPLC Fraction 12 of acylation reaction
[16] = HPLC Fraction 13 of acylation reaction
[17] = HPLC Fraction 14 of acylation reaction
[18] = HPLC Fraction 15 of acylation reaction
[19] = HPLC Fraction 16 of acylation reaction
[20] = HPLC Fraction 17 of acylation reaction
[21] = HPLC Fraction 18 of acylation reaction
[22] = HPLC Fraction 19 of acylation reaction
[23] = HPLC Fraction 20 of acylation reaction
[24] = average of 3 replicates, read-out: IC50 Average
[25] = replicate 1, read-out: IC50 Replicate 1
[26] = replicate 2, read-out: IC50 Replicate 2
[27] = replicate 3, read-out: IC50 Replicate 3

T1 sequence (Q00987 whole entry): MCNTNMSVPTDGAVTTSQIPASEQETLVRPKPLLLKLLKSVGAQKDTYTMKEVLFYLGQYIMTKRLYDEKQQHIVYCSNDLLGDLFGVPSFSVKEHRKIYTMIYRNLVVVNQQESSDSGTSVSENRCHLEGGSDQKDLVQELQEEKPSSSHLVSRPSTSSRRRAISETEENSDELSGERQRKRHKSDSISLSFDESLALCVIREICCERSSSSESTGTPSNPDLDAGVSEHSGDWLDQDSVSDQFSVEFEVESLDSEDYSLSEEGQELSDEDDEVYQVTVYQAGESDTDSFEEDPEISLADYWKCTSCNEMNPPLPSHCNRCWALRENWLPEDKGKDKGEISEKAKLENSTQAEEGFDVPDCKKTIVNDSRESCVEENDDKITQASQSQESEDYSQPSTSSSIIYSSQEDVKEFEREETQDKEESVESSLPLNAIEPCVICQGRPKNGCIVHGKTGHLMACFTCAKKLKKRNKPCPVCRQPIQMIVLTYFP

## O=C(/C=C/c1ccccc1)NC[C@@H]1NC(=O)[C@H]2CCCN(C2)C(=O)CCSSCCNC(=O)[C@H](Cc2c[nH]c3ccccc23)NC1=O [M8]
MDM2 [1]; [4]
  Fraction bound (fraction fluorescent probe displaced): 0.08
MDM2 [1]; [5]
  Fraction bound (fraction fluorescent probe displaced): 0.25
MDM2 [1]; [6]
  Fraction bound (fraction fluorescent probe displaced): 0.02
MDM2 [1]; [7]
  Fraction bound (fraction fluorescent probe displaced): -0.000869
MDM2 [1]; [8]
  Fraction bound (fraction fluorescent probe displaced): -0.0422
MDM2 [1]; [9]
  Fraction bound (fraction fluorescent probe displaced): -0.000869
MDM2 [1]; [10]
  Fraction bound (fraction fluorescent probe displaced): 0.02
MDM2 [1]; [11]
  Fraction bound (fraction fluorescent probe displaced): 0.02
MDM2 [1]; [12]
  Fraction bound (fraction fluorescent probe displaced): 0.04
MDM2 [1]; [13]
  Fraction bound (fraction fluorescent probe displaced): -0.0422
MDM2 [1]; [14]
  Fraction bound (fraction fluorescent probe displaced): -0.0422
MDM2 [1]; [15]
  Fraction bound (fraction fluorescent probe displaced): -0.0216
MDM2 [1]; [16]
  Fraction bound (fraction fluorescent probe displaced): 0.37
MDM2 [1]; [17]
  Fraction bound (fraction fluorescent probe displaced): 0.04
MDM2 [1]; [18]
  Fraction bound (fraction fluorescent probe displaced): -0.13
MDM2 [1]; [19]
  Fraction bound (fraction fluorescent probe displaced): -0.0216
MDM2 [1]; [20]
  Fraction bound (fraction fluorescent probe displaced): -0.0216
MDM2 [1]; [21]
  Fraction bound (fraction fluorescent probe displaced): -0.21
MDM2 [1]; [22]
  Fraction bound (fraction fluorescent probe displaced): -0.17
MDM2 [1]; [23]
  Fraction bound (fraction fluorescent probe displaced): -0.23
MDM2 [2]
  displacement of fluorescent probe from MDM2: 21%
MDM2 [3]; [24]
  IC50: 900 nM
MDM2 [3]; [25]
  IC50: 1000 nM
MDM2 [3]; [26]
  IC50: 840 nM
MDM2 [3]; [27]
  IC50: 860 nM
MDM2 [3]
  displacement of fluorescent peptide probe from MDM2: efficiently displaced
MDM2 [3]; Log[Macrocycle] M -4.0
  anisotropy: 50 and 44 and 45
MDM2 [3]; Log[Macrocycle] M -4.3
  anisotropy: 50 and 43 and 47
MDM2 [3]; Log[Macrocycle] M -4.6
  anisotropy: 52 and 45 and 51
MDM2 [3]; Log[Macrocycle] M -4.9
  anisotropy: 53 and 50 and 49
MDM2 [3]; Log[Macrocycle] M -5.2
  anisotropy: 59 and 42 and 53
MDM2 [3]; Log[Macrocycle] M -5.5
  anisotropy: 61 and 53 and 54
MDM2 [3]; Log[Macrocycle] M -5.8
  anisotropy: 67 and 55 and 59
MDM2 [3]; Log[Macrocycle] M -6.1
  anisotropy: 73 and 65 and 68
MDM2 [3]; Log[Macrocycle] M -6.4
  anisotropy: 80 and 68 and 73
MDM2 [3]; Log[Macrocycle] M -6.7
  anisotropy: 85 and 73 and 80
MDM2 [3]; Log[Macrocycle] M -7.0
  anisotropy: 87 (2×) and 82
MDM2 [3]; Log[Macrocycle] M -7.3
  anisotropy: 92 and 79 and 84
MDM2 [3]; Log[Macrocycle] M -7.6
  anisotropy: 94 and 80 and 85
MDM2 [3]; Log[Macrocycle] M -7.9
  anisotropy: 90 and 80 and 83
MDM2 [3]; Log[Macrocycle] M -8.2
  anisotropy: 94 and 77 and 85
MDM2 [3]; Log[Macrocycle] M -8.5
  anisotropy: 93 and 83 (2×)

## O=C(NC[C@@H]1NC(=O)[C@H]2CCCN(C2)C(=O)CCSSCCNC(=O)[C@H](Cc2c[nH]c3ccccc23)NC1=O)c1ccc(Cl)cc1 [M7]
MDM2 [1]; [4]
  Fraction bound (fraction fluorescent probe displaced): 0.06
MDM2 [1]; [5]
  Fraction bound (fraction fluorescent probe displaced): 0.33
MDM2 [1]; [6]
  Fraction bound (fraction fluorescent probe displaced): 0.08
MDM2 [1]; [7]
  Fraction bound (fraction fluorescent probe displaced): -0.000869
MDM2 [1]; [8]
  Fraction bound (fraction fluorescent probe displaced): -0.0216
MDM2 [1]; [9]
  Fraction bound (fraction fluorescent probe displaced): 0.02
MDM2 [1]; [10]
  Fraction bound (fraction fluorescent probe displaced): 0.02
MDM2 [1]; [11]
  Fraction bound (fraction fluorescent probe displaced): 0.02
MDM2 [1]; [12]
  Fraction bound (fraction fluorescent probe displaced): 0.02
MDM2 [1]; [13]
  Fraction bound (fraction fluorescent probe displaced): 0.08
MDM2 [1]; [14]
  Fraction bound (fraction fluorescent probe displaced): -0.000869
MDM2 [1]; [15]
  Fraction bound (fraction fluorescent probe displaced): -0.06
MDM2 [1]; [16]
  Fraction bound (fraction fluorescent probe displaced): -0.0422
MDM2 [1]; [17]
  Fraction bound (fraction fluorescent probe displaced): 0.29
MDM2 [1]; [18]
  Fraction bound (fraction fluorescent probe displaced): -0.0216
MDM2 [1]; [19]
  Fraction bound (fraction fluorescent probe displaced): -0.10
MDM2 [1]; [20]
  Fraction bound (fraction fluorescent probe displaced): -0.10
MDM2 [1]; [21]
  Fraction bound (fraction fluorescent probe displaced): -0.15
MDM2 [1]; [22]
  Fraction bound (fraction fluorescent probe displaced): -0.25
MDM2 [1]; [23]
  Fraction bound (fraction fluorescent probe displaced): -0.21
MDM2 [3]; [24]
  IC50: 3700 nM
MDM2 [3]; [25]
  IC50: 3800 nM
MDM2 [3]; [26]
  IC50: 2000 nM
MDM2 [3]; [27]
  IC50: 5300 nM
MDM2 [3]
  displacement of fluorescent peptide probe from MDM2: efficiently displaced
MDM2 [3]; Log[Macrocycle] M -4.0
  anisotropy: 39 and 34 and 33
MDM2 [3]; Log[Macrocycle] M -4.3
  anisotropy: 47 and 37 and 40
MDM2 [3]; Log[Macrocycle] M -4.6
  anisotropy: 50 and 42 and 45
MDM2 [3]; Log[Macrocycle] M -4.9
  anisotropy: 54 and 48 and 49
MDM2 [3]; Log[Macrocycle] M -5.2
  anisotropy: 60 and 47 and 53
MDM2 [3]; Log[Macrocycle] M -5.5
  anisotropy: 68 and 53 and 61
MDM2 [3]; Log[Macrocycle] M -5.8
  anisotropy: 73 and 55 and 63
MDM2 [3]; Log[Macrocycle] M -6.1
  anisotropy: 81 and 61 and 69
MDM2 [3]; Log[Macrocycle] M -6.4
  anisotropy: 87 and 68 and 75
MDM2 [3]; Log[Macrocycle] M -6.7
  anisotropy: 89 and 72 and 77
MDM2 [3]; Log[Macrocycle] M -7.0
  anisotropy: 92 and 75 and 82
MDM2 [3]; Log[Macrocycle] M -7.3
  anisotropy: 92 and 72 and 85
MDM2 [3]; Log[Macrocycle] M -7.6
  anisotropy: 97 and 81 and 87
MDM2 [3]; Log[Macrocycle] M -7.9
  anisotropy: 94 and 83 and 85
MDM2 [3]; Log[Macrocycle] M -8.2
  anisotropy: 94 and 79 and 89
MDM2 [3]; Log[Macrocycle] M -8.5
  anisotropy: 96 and 78 and 86
